Read-outs that look alike come from different tables or passages of the source. Non-standard residues stand in square brackets, D forms with d. Residues, ends and D or L forms follow the SMILES beside them. No end group written: not given here. Bip = N[C@@H](Cc1ccc(-c2ccccc2)cc1)C(=O)O; d3Pal = N[C@H](Cc1cccnc1)C(=O)O
Legend:
TACE = settings: cited from earlier work
From the text: Table 1 Peptide sequences and their IC50 values in μM against target enzymes. | column: TACE

MMP-8 = settings: cited from earlier work
From the text: Table 1 Peptide sequences and their IC50 values in μM against target enzymes. | column: MMP-8

MMP-9 = settings: cited from earlier work
From the text: Table 1 Peptide sequences and their IC50 values in μM against target enzymes. | column: MMP-9

[1] = test system: Swiss mice, LPS endotoxin shock; assay: Endotoxin shock mouse model, survival after LPS challenge; format: in vivo
Method: (§1) The protective effect of all inhibitors was evaluated in a similar way. P2 (90 mg/kg P2) was used at a similar molar concentration as Regasepin 2. The effect of lower dosages of P2 (30 mg/kg and 10 mg/kg) was also evaluated in parallel experiments. The details of the animal experiments, including grouping of mice, number of mice in each group, reagent concentrations, and ways of administration, are shown in Table 2. The peptides were administered intravenously 5 minutes after LPS injection.
The protective effects via intravenous injection were evaluated in groups of 6 mice, intravenously injected with 100 μL (7 mg/mL; 35 mg/kg) Regasepin 2 or Inhibitor 2 (35 mg/kg) 5 minutes after intravenous injection of LPS (200 μg per mouse). The numbers of surviving mice were recorded regularly after LPS administration. Kaplan-Meier survival curves were generated. P values were calculated compared with the survival rates of the negative control group. The experiments were performed two times.
Regasepin 2 via intravenous injection (35 mg/kg) was used as a positive control peptide. 200 μL P2 (15 mg/mL) was administered intraperitoneally (150 mg/kg) 30, 60, or 90 minutes before intravenous LPS challenge (200 μg per mouse) to evaluate the effect of P2 via this administration route. The protective effects of a single intravenous injection of P2 (10 mg/kg) and two times intravenous administration of P2 (10 mg/kg) with 2 hours interval were also included and compared.
Results were represented as mean ± SD. Statistical significance was assessed using statistics software SPSS13.0. Two-way analysis of variance (ANOVA) was used to test for differences between groups. For all statistical comparisons, positive groups were compared with negative controls, and ^* P < 0.05 or ^** P < 0.01 were considered statistically significant.

[2] = test system: Swiss mice, LPS endotoxin shock; settings: 100 μL (7 mg/mL), 35 mg/kg iv 5 minutes after iv LPS, ref [9]; cited from earlier work
Method: as §1, with “ea ...” for “each group, reagent concentrations, and ways of administration, are shown in Table 2. The peptides were administered intravenously 5 minutes after LPS injection.”

[3] = mouse, in vivo
Method: (§2) The concentration of P2-BSA that was used to coat the plates and the reagent concentration of the P2-specific polyclonal antibody were optimized by two-dimensional serial dilution tests. 96-well microtiter plates were coated with a solution of 6 μg/mL P2-BSA in 0.05 M sodium bicarbonate (pH 9.6) and the plate was kept overnight at 4°C. After washing the plate three times, the plate was blocked with 0.1 M PBS (pH 7.4) containing 10% (V/V) skim milk at 37°C for 1.5 h. To perform the competition ELISA between P2 and the immobilized P2-BSA, P2-specific antibody (1000 times serum dilution) was added to the wells in the presence of plasma or standard samples at 37°C for 1.5 h. After washing the plate three times, 100 μL of horseradish peroxidase-conjugated goat anti-rabbit IgG (1 : 2000) was added and incubated for 1 h at 37°C. After washing three times, the tetramethylbenzidine (TMB) substrate (100 μL/well) was added and the reaction was executed for 15 min. The reactions were stopped with 2 M sulfuric acid (50 μL/well). The absorbance of each well at 450 nm was detected with an automated ELISA reader. The calibration curve was expressed according to the fact that 1-B/B0 are linear with log C (where B0 is the OD value in the absence of P2 in plasma, B is the OD value at serial concentrations of P2 in plasma, and C is the P2 concentration, resp.). The indirect ELISA procedures were conducted in duplicate with a set of standard concentrations of P2 in diluted mouse serum in order to determine the mathematical fitting equation and linear detection range.
(§3) Adult female Swiss mice, 5 animals per group, were used for the pharmacokinetic studies. P2 (90 mg/kg, 30 mg/kg, or 10 mg/kg) was dissolved in sterile 0.9% saline and was administered intravenously. Blood samples were collected through the canthus at 0, 3, 6, 9, 12, 15, and 30 min. For intraperitoneal injection of P2, 150 mg/kg P2 dissolved in 0.9% saline was administered and blood samples were collected through the canthus at 0, 13, 20, 40, 68, 100, 127, and 168 minutes.
(§4) Blood samples were immediately centrifuged (12000 rpm for 30 seconds), and the supernatants were taken and diluted 10, 30, or 300 times with PBS, prewarmed at 80°C in a water bath. The diluted samples were kept at 80°C for another 30 min to remove enzyme activity of the plasma components. Samples were diluted with prewarmed PBS so that the final concentration of P2 was within the linear range of the standard line. After another centrifugation (12000 rpm for 2 min), the diluted samples were analyzed by ELISA to measure the plasma P2 concentrations.

[4] = mouse, in vivo, ip, 150 mg/kg
Method: as §2, §3, §4

[5] = rat; cited from earlier work
From the text: The pharmacokinetics of P2 by intraperitoneal injection was also investigated.

## PRC[Bip]CGE (cysteine pairing not given here) [Regasepin 1]
TACE; ref [8]
  IC50: 5000 nM
MMP-8; ref [8]
  IC50: 3000 nM
MMP-9; ref [8]
  IC50: 1500 nM

## Pro-Pyr-Cys-Bip-Arg-Gly-Glu [Regasepin 2]
TACE; ref [9]
  IC50: 1500 nM
MMP-8; ref [9]
  IC50: 10000 nM
[1]; 35 mg/kg iv 5 minutes after LPS iv, n = 12, Figures 4(b)-4(d)
  Protective effect (survival), positive control: significant protective effect
[2]
  Protection from endotoxin shock: protect mice from endotoxin shock
MMP-9; ref [9]
  IC50: 800 nM

## Pro-(D-Pyr)-(D-Cys)-Bip-Arg-Gly-Glu [Inhibitor 2]
TACE; ref [11]
  IC50: 5500 nM
MMP-8; ref [11]
  IC50: 800 nM
MMP-9; ref [11]
  IC50: 2750 nM

## CC[C@H](C)[C@H](NC(=O)CNC(=O)CNC(=O)CNC(=O)CNC(=O)[C@H](CCC(=O)O)NC(=O)CNC(=O)[C@H](CCCNC(=N)N)NC(=O)[C@H](Cc1ccc(-c2ccccc2)cc1)NC(=O)[C@@H](CS)NC(=O)[C@@H](Cc1cccnc1)NC(=O)[C@@H]1CCCN1)C(=O)N[C@H](C(=O)N[C@@H](CCCNC(=N)N)C(=O)N[C@@H](CCCNC(=N)N)C(=O)N[C@@H](C)C(=O)N[C@@H](CC(=O)O)C(=O)N[C@@H](CCCNC(=N)N)C(=O)N[C@@H](C)C(=O)N[C@@H](C)C(=O)N[C@H](C(=O)N1CCC[C@H]1C(=O)O)C(C)C)C(C)C [P2] (H-P[d3Pal][dC][Bip]RGEGGGGIVRRADRAAVP-OH; N-terminus and C-terminus assumed)
TACE; ref [10]
  IC50: 1950 nM
MMP-8; ref [10]
  IC50: 350 nM
[1]; 10 mg/kg iv 5 minutes after LPS iv and again 2 hours later, n = 12, Figure 4(a) G3
  Survival after two injections (G3) versus single injection (G2): less mice survived
[1]; single 10 mg/kg iv 5 minutes after LPS iv, n = 12, Figure 4(a) G2
  Survival versus LPS-treated control group: significant difference with the LPS-treated control group
[3]; ip, 150 mg/kg
  Time at which the peak plasma level was reached: ≤ 13 min
[3]; iv, 10 mg/kg
  Time an effective P2 concentration (above 2 μM) remained in plasma: 6 min
[3]; iv, 90 mg/kg
  Time the effective plasma concentration of P2 lasted: less than 30 minutes
[4]
  level at time molar at 100 min: 1540 nM
MMP-9; ref [10]
  IC50: 1360 nM

## IVRRADRAAVP [ES-2]
TACE; ref [10]
  IC50: > 500000 nM
MMP-8; ref [10]
  IC50: > 500000 nM
MMP-9; ref [10]
  IC50: > 500000 nM

## IVRRADRAAVPGGGGRGD [HM-3]
[5]
  in vivo half-life: 27 min

Reference: paper PMC4265539, “Inhibition of Neutrophil Collagenase/MMP-8 and Gelatinase B/MMP-9 and Protection against Endotoxin Shock” (Journal of Immunology Research, 2014)
